# Data published in patent publication US11427556B2, “Urea derivatives as inhibitors of ASK1” (Hepagene Therapeutics (HK) Limited, priority 2017, dated 2022).
# pEC50: −log10 of the molar value.
# Molecular target: T1, Recombinant human ASK1 kinase (Homo sapiens, UniProt Q99683)
# T1 construct: purchased Invitrogen Inc
# T1 sequence (Q99683 1-1374): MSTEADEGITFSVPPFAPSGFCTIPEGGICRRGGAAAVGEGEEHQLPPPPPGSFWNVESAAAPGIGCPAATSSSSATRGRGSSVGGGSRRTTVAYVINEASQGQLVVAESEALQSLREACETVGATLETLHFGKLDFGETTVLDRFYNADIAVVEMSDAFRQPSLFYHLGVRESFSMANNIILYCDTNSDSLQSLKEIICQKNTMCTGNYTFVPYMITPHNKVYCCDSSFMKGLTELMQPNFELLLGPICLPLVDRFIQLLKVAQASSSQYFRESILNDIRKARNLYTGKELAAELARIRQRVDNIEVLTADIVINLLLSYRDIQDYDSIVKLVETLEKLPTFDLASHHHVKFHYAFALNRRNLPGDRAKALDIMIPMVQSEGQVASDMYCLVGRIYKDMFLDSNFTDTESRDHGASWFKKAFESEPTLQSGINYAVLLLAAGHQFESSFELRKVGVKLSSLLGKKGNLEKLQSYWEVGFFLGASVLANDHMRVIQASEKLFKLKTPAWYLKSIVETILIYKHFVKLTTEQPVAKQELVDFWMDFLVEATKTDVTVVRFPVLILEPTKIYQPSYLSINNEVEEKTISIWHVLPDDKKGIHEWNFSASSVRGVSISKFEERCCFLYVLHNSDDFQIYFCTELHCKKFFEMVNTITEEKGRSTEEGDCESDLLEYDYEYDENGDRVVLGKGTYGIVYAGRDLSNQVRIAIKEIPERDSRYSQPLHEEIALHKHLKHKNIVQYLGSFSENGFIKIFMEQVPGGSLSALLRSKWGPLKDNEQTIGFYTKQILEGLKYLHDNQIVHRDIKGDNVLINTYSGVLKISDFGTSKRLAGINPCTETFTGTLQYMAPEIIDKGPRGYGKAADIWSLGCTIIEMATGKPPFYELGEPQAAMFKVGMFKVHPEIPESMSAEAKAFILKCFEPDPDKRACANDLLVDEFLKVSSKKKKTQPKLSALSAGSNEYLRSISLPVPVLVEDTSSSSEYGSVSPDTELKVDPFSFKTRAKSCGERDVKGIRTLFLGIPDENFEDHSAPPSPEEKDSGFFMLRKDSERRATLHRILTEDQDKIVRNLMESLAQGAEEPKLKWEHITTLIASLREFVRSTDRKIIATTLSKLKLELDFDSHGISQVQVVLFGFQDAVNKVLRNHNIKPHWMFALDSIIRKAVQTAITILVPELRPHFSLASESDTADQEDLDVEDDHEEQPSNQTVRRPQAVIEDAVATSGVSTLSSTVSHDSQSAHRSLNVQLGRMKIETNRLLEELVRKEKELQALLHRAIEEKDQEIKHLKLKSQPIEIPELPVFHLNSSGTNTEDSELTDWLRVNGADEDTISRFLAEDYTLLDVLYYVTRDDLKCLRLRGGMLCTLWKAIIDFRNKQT
# Experiment: ASK1 kinase HTRF assay (HTRF KinEASE-STK, phosphorylation of biotinylated peptide substrate)
# Assay type: biochemical
# Details: not given
# How it was run: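 HTRF KinEASE-STK read-out of biotinylated peptide phosphorylation. Compound incubated with 3 nM ASK1 and 1 uM STK-substrate-biotin in kinase buffer containing 5 mM MgCl2 and 1 mM DTT.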
row,Compound,pEC50
1,CC(C)n1cnnc1-c1cccc(NC(=O)Nc2ccccc2)n1 [Compound I-016],6.30 to 7.30
2,CC(C)n1cnnc1-c1cccc(NC(=O)Nc2ccc3ccccc3n2)n1 [Compound I-067],> 7.30
3,C[C@H](CO)n1cnnc1-c1cccc(NC(=O)Nc2cc(C(=O)N3CCC(=O)CC3)ccn2)n1 [Compound I-135],> 7.30

# Same assay, conditions: 3 nM ASK1 kinase, 1 uM STK-substrate-biotin, HTRF detection; read-out: EC50
row,Compound,pEC50
1,CC(C)n1cnnc1-c1cccc(NC(=O)Nc2cc(C(=O)N3CCC(F)(F)CC3)ccn2)n1 [Compound I-143],> 7.30
2,Cc1ccnc(NC(=O)Nc2cccc(-c3nncn3C(C)C)n2)c1 [Compound I-038],> 7.30
3,CC(C)n1cnnc1-c1cccc(NC(=O)Nc2cc(C(=O)N3C4CCCC3CC4)ccn2)n1 [Compound I-149],> 7.30
4,CC(C)n1cnnc1-c1cccc(NC(=O)Nc2cc(C(=O)Nc3cccc(F)c3)ccn2)n1 [Compound I-157],> 7.30
5,C[C@H](CO)n1cnnc1-c1cccc(-n2ccn(-c3ccc(N4CCOCC4)cn3)c2=O)n1 [III-10],> 7.30
6,CC(C)n1cnnc1-c1cccc(NC(=O)Nc2nc3ccccc3o2)n1 [Compound I-216],> 7.30
7,CC(C)n1cnnc1-c1cccc(NC(=O)Nc2cc(C3CC3)ccn2)n1 [Compound I-047],> 7.30
8,"CC(C)n1cnnc1-c1cccc(NC(=O)Nc2cc(S(=O)(=O)Nc3ccccc3)ccn2)n1 [Compound I-014, 1-[4-(Phenylsulfamoyl)pyridin-2-yl]-3-[6-[4-(propan-2-yl)-4H-1,2,4-triazol-3-yl]pyridin-2-yl]urea]",> 7.30
9,"CC(n1cnnc1-c1cccc(NC(=O)Nc2ccccn2)n1)C(F)(F)F (stereo not drawn) [Compound I-003, 3-(Pyridin-2-yl)-1-[6-[4-(1,1,1-trifluoropropan-2-yl)-4H-1,2,4-triazol-3-yl]pyridin-2-yl]urea]",> 7.30
10,CC(C)n1cnnc1-c1cccc(NC(=O)Nc2cc(N3CCCCC3)ccn2)n1 [Compound I-105],> 7.30
11,Cc1ccc(NC(=O)Nc2cccc(-c3nncn3[C@H](C)CO)n2)nc1 [Compound I-036],> 7.30
12,CC(C)n1cnnc1-c1cccc(N2CCN(c3ccc(N4CCOCC4)cn3)C2=O)n1 [Compound V-12],> 7.30
13,CC(C)n1cnnc1-c1cccc(NC(=O)Nc2cc(Br)ccn2)n1 [Compound I-177],> 7.30
14,"CC(C)n1cnnc1-c1cccc(NC(=O)Nc2cc(NC(=O)c3ccccc3)ccn2)n1 [Compound I-004, N-(2-(3-(6-(4-Isopropyl-4H-1,2,4-triazol-3-yl)pyridin-2-yl)ureido)pyridin-4-yl)benzamide]",> 7.30
15,CC(C)n1cnnc1-c1cccc(NC(=O)Nc2cccc(Br)n2)n1 [Compound I-179],> 7.30
16,"CC(C)n1cnnc1-c1cccc(-n2ccn(-c3ccc(N4CCNCC4)cn3)c2=O)n1 [III-04, 1-(6-(4-Isopropyl-4H-1,2,4-triazol-3-yl)pyridin-2-yl)-3-(5-(piperazin-1-yl)pyridin-2-yl)-1H-imidazol-2(3H)-one]",> 7.30
17,CC(C)n1cnnc1-c1cccc(NC(=O)Nc2cc(S(=O)(=O)N3CCCCC3)ccn2)n1 [Compound I-206],> 7.30
18,CC(C)n1cnnc1-c1cccc(NC(=O)Nc2cc(C(=O)Nc3ccc4ccccc4c3)ccn2)n1 [Compound I-154],> 7.30
19,CC(C)n1cnnc1-c1cccc(NC(=O)Nc2cc(I)ccn2)n1 [Compound I-173],> 7.30
20,"CC(C)n1cnnc1-c1cccc(-n2ccn(-c3ccc(C(=O)N4CCCCC4)cn3)c2=O)n1 [III-02, 1-(6-(4-Isopropyl-4H-1,2,4-triazol-3-yl)pyridin-2-yl)-3-(5-(piperidine-1-carbonyl)pyridin-2-yl)-1H-imidazol-2(3H)-one]",> 7.30
21,CC(C)c1ccc(NC(=O)Nc2cccc(-c3nncn3C(C)C)n2)nc1 [Compound I-044],> 7.30
22,CC(C)n1cnnc1-c1cccc(NC(=O)Nc2cc(C(=O)N3CCCCCC3)ccn2)n1 [Compound I-147],> 7.30
23,"CC(C)n1cnnc1-c1cccc(-n2ccn(-c3ccc(N4CCOCC4)cn3)c2=O)n1 [III-03, 1-(6-(4-Isopropyl-4H-1,2,4-triazol-3-yl)pyridin-2-yl)-3-(5-morpholinopyridin-2-yl)-1H-imidazol-2(3H)-one]",> 7.30
24,CC1CN(c2ccc(N3CCN(c4cccc(-c5nncn5C(C)C)n4)C3=O)nc2)CC(C)O1 (stereo not drawn) [Compound V-16],> 7.30
25,CC(C)n1cnnc1-c1cccc(NC(=O)Nc2ccc(CO)cn2)n1 [Compound I-208],> 7.30
26,CC(C)n1cnnc1-c1cccc(NC(=O)Nc2ncccc2I)n1 [Compound I-172],> 7.30

row,Compound,pEC50
1,CC(C)n1cnnc1-c1cccc(NC(=O)Nc2cccc(-c3nncn3C(C)C)n2)n1 [Compound I-171],6.30 to 7.30
2,CC(C)n1cnnc1-c1cccc(NC(=O)Nc2cc(C(=O)N3CCC(O)CC3)ccn2)n1 [Compound I-136],> 7.30
3,CC(C)n1cnnc1-c1cccc(NC(=O)Nc2cc(N3CCC(N4CCOCC4)CC3)ccn2)n1 [Compound I-106],> 7.30
4,CC(C)n1cnnc1-c1cccc(NC(=O)Nc2cc(S(N)(=O)=O)ccn2)n1 [Compound I-205],> 7.30
5,COc1ccnc(NC(=O)Nc2cccc(-c3nncn3[C@H](C)CO)n2)c1 [Compound I-053],> 7.30
6,CC(C)c1ccnc(NC(=O)Nc2cccc(-c3nncn3C(C)C)n2)c1 [Compound I-045],> 7.30
7,CC(C)n1cnnc1-c1cccc(NC(=O)Nc2ccc(Br)cn2)n1 [Compound I-178],> 7.30
8,C[C@H](CO)n1cnnc1-c1cccc(-n2ccn(-c3cc(-c4ccccc4)ccn3)c2=O)n1 [III-08],6.30 to 7.30
9,C[C@H](CO)n1cnnc1-c1cccc(NC(=O)Nc2cc(C(=O)N3CCCc4ccccc43)ccn2)n1 [Compound I-124],> 7.30
10,"CC(C)n1cnnc1-c1cccc(NC(=O)Nc2cc(N3CCN(C)CC3)ccn2)n1 [Compound I-005, 1-(6-(4-Isopropyl-4H-1,2,4-triazol-3-yl)pyridin-2-yl)-3-(4-(4-methylpiperazin-1-yl)pyridin-2-yl)urea]",> 7.30
11,O=C(Nc1cccc(-c2nncn2C2CC2)n1)Nc1ccc2ccccc2n1 [Compound I-068],> 7.30
12,CC(C)n1cnnc1-c1cccc(NC(=O)Nc2cc(O)ccn2)n1 [Compound I-073],6.30 to 7.30
13,CC(C)n1cnnc1-c1cccc(NC(=O)Nc2cc(-c3ccccc3)ccn2)n1 [Compound I-077],> 7.30
14,CC(C)n1cnnc1-c1cccc(NC(=O)Nc2ccc(N3CCCC3)cn2)n1 [Compound I-165],> 7.30
15,"C[C@H](CO)n1cnnc1-c1cccc(NC(=O)Nc2cc(C(=O)N3CCC(C)(C)CC3)ccn2)n1 [Compound I-007, (R)-1-(4-(4,4-Dimethylpiperidine-1-carbonyl)pyridin-2-yl)-3-(6-(4-(1-hydroxypropan-2-yl)-4H-1,2,4-triazol-3-yl)pyridin-2-yl)urea]",> 7.30
16,CC(C)n1cnnc1-c1cccc(NC(=O)Nc2ccc(O)cn2)n1 [Compound I-074],> 7.30
17,C[C@@H](CO)n1cnnc1-c1cccc(NC(=O)Nc2cc(Cl)ccn2)n1 [Compound I-183],> 7.30
18,CC(C)n1cnnc1-c1cccc(NC(=O)Nc2cc([N+](=O)[O-])ccn2)n1 [Compound I-175],> 7.30
19,CC(C)n1cnnc1-c1cccc(N2CCN(c3ccc(-c4ccncc4)cn3)C2=O)n1 [Compound V-07],> 7.30
20,CC(C)n1cnnc1-c1cccc(NC(=O)Nc2ccc(I)cn2)n1 [Compound I-174],> 7.30
21,Cc1ccc(NC(=O)Nc2cccc(-c3nncn3C(C)C)n2)cc1 [Compound I-017],6.30 to 7.30
22,C[C@H](CO)n1cnnc1-c1cccc(-n2ccn(-c3ccc(-c4ccccc4)cn3)c2=O)n1 [III-07],> 7.30
23,C[C@H](CO)n1cnnc1-c1cccc(N2CCN(c3ccc(N4CCNCC4)cn3)C2=O)n1 [Compound V-22],> 7.30
24,C[C@H](CO)n1cnnc1-c1cccc(NC(=O)Nc2cc(C(=O)N3CCCC[C@@H]3C)ccn2)n1 [Compound I-119],> 7.30
25,CC(C)n1cnnc1-c1cccc(NC(=O)Nc2cc(C3CCNCC3)ccn2)n1 [Compound I-050],> 7.30
